According to article PMC10017027, “Design and Synthesis of Novel HIV-1 NNRTIs with Bicyclic Cores and with Improved Physicochemical Properties” (Journal of Medicinal Chemistry, 2023):
Read-outs that look alike come from different tables or passages of the source.

What was measured:
Format in all cases: cell-based
[1] = tested on: HIV-1 HXB2; assay: MT-4 antiviral cytopathic effect assay, HXB2 wild-type virus; conditions: Human immunodeficiency virus 1, MT4; HIV-1 HXB2 wild-type, MT-4 cells; read-out: EC50 HXB2
Protocol: (§1) The prepared compounds were tested for their anti-HIV-1 activity (Table 1). A viral cytopathic effect assay in MT-4 cells with HIV-1 IIIB virus was used to determine compound potency (EC50, 50% cell viability) in protecting virus induced cell killing. Compound cytotoxicity was assessed in MT-4 cells in the absence of virus (CC50, 50% cytotoxicity).
(§2) Compounds were tested in a high-throughput 384-well assay format for their ability to inhibit the virus replication-induced cytopathic effect in MT-4 cell cultures acutely infected with HIV-1 (IIIB strain), HXB2, HXB2-K103N, and HXB2-Y181C. Compounds were serially diluted (1:3) in DMSO on 384-well polypropylene plates and further diluted 200-fold into complete RPMI media (10% FBS, 1% P/S) using Biotek Micro Flow and an Agilent ECHO acoustic dispenser. Each plate contained up to eight test compounds, with negative (no drug control) and 5 μM AZT positive controls. MT-4 cells were further diluted in complete RPMI media and added to each plate using a Micro-Flo dispenser. After five days of incubation in a humidified and temperature-controlled incubator (37 °C), Cell Titer Glo (Promega) was added to the assay plates to quantify the amount of […]. EC50 and CC50 values were defined as the compound concentration that causes a 50% decrease in luminescence signal and were calculated using a sigmoidal dose-response model to generate curve fits.

[2] = tested on: HIV-1 HXB2 K103N variant; assay: MT-4 antiviral cytopathic effect assay, HXB2-K103N
Protocol: as §1, with “cytotoxicity). […] ETV contains bromo and amino substitutions on the DAPY core. […] Likely, with the smaller cyano arm I in 1, 3, and 5, the cores could be further elaborated to optimize the compound position in the pocket and to improve potency.” for “cytotoxicity).”
as §2

[3] = tested on: HIV-1 HXB2 Y181C variant; assay: MT-4 antiviral cytopathic effect assay, HXB2-Y181C
Protocol: as §1, with “cytotoxicity). […] ETV contains bromo and amino substitutions on the DAPY core. […] Likely, with the smaller cyano arm I in 1, 3, and 5, the cores could be further elaborated to optimize the compound position in the pocket and to improve potency.” for “cytotoxicity).”
as §2

[4] = tested on: HIV-1 (IIIB strain); assay: MT-4 antiviral cytopathic effect assay, HIV-1 IIIB
Protocol: as §1, §2

[5] = preliminary biological data, in words
[6] = supplement CSV, fold change vs HXB2

SMILES: Cc1cc(C#N)cc(C)c1N1CC(=O)Nc2cnc(Nc3ccc(C#N)cc3)nc21 [Compound 3, 4-(2-((4-Cyanophenyl)amino)-6-oxo-6,7-dihydropteridin-8(5H)-yl)-3,5-dimethylbenzonitrile]
- EC50 [1]: 8.1 nM
- EC50 ([2]; Human immunodeficiency virus 1, HXB2, read-out: EC50 K103N): 45.2 nM
- K103N (FC) ([2]; fold change: ratio of potency against HXB2 K103N and parental HXB2): 5.6
- potency against K103N mutated strain [2, 5]: high potency
- K103N (FC) [2, 6]: 5.6
- EC50 ([3]; Human immunodeficiency virus 1, HXB2, read-out: EC50 Y181C): 30.2 nM
- Y181C (FC) ([3]; fold change: ratio of potency against HXB2 Y181C and parental HXB2): 3.7
- potency against Y181C mutated strain [3, 5]: high potency
- Y181C (FC) [3, 6]: 3.7
- EC50 ([4]; Human immunodeficiency virus 1, HXB2 / IIIB, range over HIV-1 IIIB and HXB2, read-out: EC50 against both wild-type viruses): 8.1 to 8.6 nM
- EC50 ([4]; Human immunodeficiency virus 1, IIIB, MT4, protects 50% of MT-4 cells against HIV-1-induced cell killing, HIV-1 IIIB, WT, read-out: EC50 MT4): 8.6 nM
- activity against the WT virus [4, 5]: low nanomolar activity
